This note sets out measurements from publication PMC3581588, “Foam Cell Specific LXRα Ligand” (PLoS ONE, 2013).

The structures appear in SMILES notation. Where two headings read alike, the source gives them in different places.

Experiment [1] has as its system THP-1 macrophages. The experiment in a line: gene expression of LXRα target genes (qPCR) in THP-1 macrophages. The conditions noted are these: for expression of LXRα target genes (LXRα, SREBF1, ABCA1, APOE): 10 µM, 24 h. Format: cell-based, human. The procedure:
(§1) We used the human THP1 cell line, which is widely applied as a macrophage and foam cell model with similar properties as primary cells. […] For generating macrophages differentiation was induced by 10^−8 M Phorbol 12-myristate 13-acetate (PMA) (Sigma-Aldrich) for 48 h. Ligand treatment of macrophages was performed for further 24 h. To induce foam cell formation macrophages were treated for additional 48 h with 100 µg/mL modified human oxidized low density lipoprotein (oxLDL) obtained from Source BioScience (RP-048). Ligand treatment was performed simultaneously with foam cell formation. Cholesterol loading and treatment was controlled with Oil Red O staining (Alfa Aeser). To investigate ligand induced effects on cell proliferation of THP-1 macrophages CellTiter-Glo Luminescent Cell Viability Assay (Promega) was utilized.
(§2) Total RNA isolation and purification was performed by using the RNeasy Mini Kit (QIAGEN) and RNase-Free DNase Set (QIAGEN). cDNA was generated by reverse transcription using the High Capacity cDNA Reverse Transcription Kit (Life Technologies). Gene expression was quantified using the SYBR Green PCR Master Mix (Life Technologies) and ABI 7900HT Fast Real Time PCR System (Life Technologies). In each reaction 0.8 ng/µL cDNA and 0.2 µM primers were used. Gene expression was calculated with the ΔΔCt-method. ß-Actin was used for normalisation.

For experiment [2], the system named is THP-1 macrophages. The experiment in a line: triglyceride content in macrophages. Format: cell-based, human. The conditions noted are these: 10 µM, 48 h, vs. DMSO. The procedure: as §1
(§3) THP-1 monocytes were plated out into 24-well plates (Nunc) at a density of 2×10^5 cells/well. After differentiation and treatment cells were lysed with 100 µL lysis buffer (PBS, 0.25 M NaCl, 1% Triton X-100). Total and free cholesterol were determined using the colorimetric enzymatic Amplex Red Cholesterol Assay Kit (Invitrogen). Triglycerides were quantified by Triglyceride Assay Kit (BioVision). For normalisation protein content was determined with Pierce 660 nm Protein Assay Reagent (Thermo Scientific).

Experiment [3] concerns THP1-derived foam cells. The experiment in a line: cholesterol and triglyceride content in foam cells. Type of experiment: cell-based, human. The conditions noted are these: 10 µM, 48 h, vs. DMSO. The procedure: as §1, §3
For experiment [4], the target named is T1, LXRα ligand binding domain (Homo sapiens, UniProt Q13133).
T1 construct: expressed in transfected cells; host or cells: HEK-293
T1 sequence (Q13133 164-447): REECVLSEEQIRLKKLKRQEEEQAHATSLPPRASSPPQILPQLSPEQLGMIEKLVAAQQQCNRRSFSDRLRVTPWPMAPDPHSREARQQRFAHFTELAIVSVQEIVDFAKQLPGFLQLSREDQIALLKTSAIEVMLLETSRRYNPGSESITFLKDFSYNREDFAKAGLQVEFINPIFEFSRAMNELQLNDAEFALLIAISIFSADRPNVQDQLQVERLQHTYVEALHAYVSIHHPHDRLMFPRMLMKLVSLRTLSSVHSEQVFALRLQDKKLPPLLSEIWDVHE
The experiment in a line: dual luciferase reporter gene assay, LXRα-LBD/GAL4-DBD in HEK-293 cells. Type of experiment: cell-based. The procedure: (§4) The ligand binding domain (LBD) of LXRα (amino acids 164 to 447) or LXRβ (amino acids 154 to 461) was cloned into pBIND [Renilla/Amp] vector (Promega). Selection and amplification were performed in E. coli cells. Purification of the plasmids was performed with a plasmid purification kit (Qiagen). For transfection HEK-293 cells were plated in 96-well plates (TPP) at a density of 3.5×10^4 cells/well for 24 h. To investigate the ligand binding on LXRα ligand binding domain, 0.04 ng of renilla luciferase coding plasmide pGL4.75 (Promega), 0.04 ng of LXRα-LBD/GAL4-DBD plasmide and 80 ng of firefly luciferase coding plasmide pGL4.31 (Promega) were used in a total volume of 200 µL for each well. For LXRβ binding assay 40 ng of LXRβ-LBD/GAL4-DBD plasmide were applied in each transfection mix. Transfection was carried out for 4 h with Lipofectamine 2000 Transfection Reagent (Invitrogen) in Opti-MEM medium (Invitrogen). Ligand treatment was performed at different concentrations for 24 h. For lysis and detection dual-luciferase reporter gene assay system (Promega) and POLARstar Omega (BMG LABTECH) were used.
(In a reporter assay the amount or activity of a reporter protein is the signal.)

Experiment [5] deals with THP1-derived foam cells. Nature of the experiment: gene expression of LXRα target genes (qPCR) in oxLDL-loaded foam cells. Format: cell-based, human. The conditions noted are these: 10 µM. The procedure:
as §1, §2
In general terms: Quantitative PCR measures a nucleic acid by following its amplification.

Experiment [6] relates to THP1-derived foam cells. Nature of the experiment: Western blot of LXRα and APOE in foam cells. Conditions: Western blot densitometry. Type of experiment: cell-based, human. The procedure: as §1
Whole cell extracts were harvested from three biological replicates and denaturized for SDS-PAGE (NuPAGE Novex 4–12% Bis-Tris Gels). Proteins were blotted on nitrocellulose Hybond ECL membrane and incubated with strictly validated published antibodies against LXRα (Abcam, ab 41902), APOE (Abcam ab1906), and as housekeeping protein control β-Actin (Santa Cruz Biotechnology, sc-47778, C4). […] This tool measures quantitatively the optical density and provides more accurate data than simple eye-observations. […]
A general note: Immunoblotting shows a protein as a band on a membrane.

Experiment [7] addresses T2, LXRβ ligand binding domain (Homo sapiens, UniProt P55055).
T2 construct: expressed in transfected cells; host or cells: HEK-293
T2 sequence (P55055 154-460 limits assumed): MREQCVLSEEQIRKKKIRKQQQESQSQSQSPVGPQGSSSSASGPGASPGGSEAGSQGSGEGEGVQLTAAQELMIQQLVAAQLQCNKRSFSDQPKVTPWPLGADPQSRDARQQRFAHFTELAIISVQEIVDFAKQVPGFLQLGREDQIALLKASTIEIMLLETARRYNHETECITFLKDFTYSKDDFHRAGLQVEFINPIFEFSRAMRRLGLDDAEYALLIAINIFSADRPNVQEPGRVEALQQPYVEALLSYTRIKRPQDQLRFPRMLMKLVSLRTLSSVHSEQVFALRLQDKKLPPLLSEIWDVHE
Nature of the experiment: dual luciferase reporter gene assay, LXRβ-LBD/GAL4-DBD in HEK-293 cells. Type of experiment: cell-based. The procedure:
as §4

The mark [8] stands for this setting: +DMSO, transcriptional activation vs. T09.

As for `O=S(=O)(c1ccccc1)N(CC(F)(F)F)c1ccc(C(O)(C(F)(F)F)C(F)(F)F)cc1` [T0901317, reference compound], the “expression of LXRα target genes (LXRα, SREBF1, ABCA1, APOE)” value in the experiment on THP-1 macrophages [1] is “increased expression”. Further, the triglyceride level result with THP-1 macrophages [2] is given as “stayed rather unchanged”. In the experiment with THP1-derived foam cells [3], the “total and esterified cholesterol content” value is “significant reduction”; the triglyceride levels entry is reported as “increased triglyceride levels”.
Usually EC50 stands for the midpoint of the concentration-response curve. In experiment [4], `CC(C)CC[C@@H](O)[C@@H](C)[C@H]1CC[C@H]2[C@@H]3CC=C4C[C@@H](O)CC[C@]4(C)[C@H]3CC[C@]12C` [22-R-Hydroxycholesterol, reference compound] registered an EC50 of 13300 nM. The same molecule displayed an Efficacy in experiment [4] (setting [8]) of 4%.
For `C(=C\c1ccc(OCC2CO2)cc1)/c1ccccc1` (stereo not drawn) [STX4, 2-[[4-[(E)-styryl]phenoxy]methyl]oxirane], the results for the “expression of LXRα target genes (LXRα, SREBF1, ABCA1, APOE)” value with THP1-derived foam cells [5] and in the experiment on THP-1 macrophages [1] were “potent target gene expression similar to T09” and “not”, respectively. In addition, in the experiment on THP-1 macrophages [1] (presence of 1 µM T09), the “ABCA1 expression with STX4 in the presence of T09” value is given as “additive effects”. Further, in the experiment with THP-1 macrophages [2], the triglyceride level result is on record as “stayed rather unchanged”. For the same molecule, in the experiment with THP1-derived foam cells [3], the “total and esterified cholesterol content” value is “significant reduction”. The triglyceride levels result in the experiment with THP1-derived foam cells [3] is reported as “not increased”. For the same molecule, in the experiment on THP1-derived foam cells [6], the “protein expression levels of LXRα target genes (LXRα, APOE)” value is recorded as “increased protein expression levels”. In addition, the Efficacy is 47% in experiment [4] (+200 nM T0901317 (additive)) and 6% in experiment [4] (setting [8]). Further, the EC50 in experiment [4] (+200 nM T0901317 (additive), read-out: EC50) came to 28 nM; in experiment [4] (+DMSO, LXRα reporter gene, HEK-293, 24 h, read-out: EC50), 35 nM. Further, in experiment [7], the “Transcriptional activation of LXRβ” value is given as “does not activate”.
